Assay results taken from US7238469B2, “Carbon monoxide improves outcomes in tissue and organ transplants and suppresses apoptosis” (priority 2001, dated 2007).

Tests used:
[1] = tested on: islets transplanted under the kidney capsule of diabetic syngeneic recipients; experiment: Syngeneic marginal mass islet transplantation, time to normoglycemia; assay type: in vivo, C57BL/6 mice; conditions: 250 islets pre-incubated two hours in medium pre-saturated with 1% CO
Procedure: Cells and islets were exposed to 1% carbon monoxide in compressed air balanced with 5% CO2, as described elsewhere (see, e.g., Otterbein et al., Nature Med. 6:422–428, 2000). Islets were incubated in RPMI medium pre-saturated with carbon monoxide (4° C. overnight, 1% CO, 5% CO2) for two hours at 37° C. while treatment with 1% CO, 5% CO2 was continued.
Male C57BL/6 were purchased from Charles River Laboratories (Wilmington, Mass.) and housed in accordance with guidelines from the NIH. The experiments were approved by the Institutional Animal Care and Use Committee (IACUC). Recipient mice (8 weeks old) were rendered diabetic by a single intraperitoneal injection (220 mg/kg) of StreptozotocinO (Sigma) dissolved in citrate buffer. Mice received transplants if 2 consecutive non-fasting blood glucose levels of greater than 350 mg/dl were obtained from a whole blood sample.
250 islets 150–250 îm in diameter were hand-picked using a dissecting microscope. Islets were transplanted under the kidney capsule as described previously (Kaufman et al., J. Exp. Med. 172:291–302, 1990). […]
Whether carbon monoxide pre-incubation of islet grafts prior to transplantation results in better functional performance in vivo was investigated (FIGS. 6A–B). […] After transplantation, blood glucose levels were determined on a daily basis. […]

HO enzymatic activity = HO enzymatic activity (bilirubin generation in microsomes) of transplanted hearts; assay type: in vivo, mouse hearts transplanted into rats; conditions: 2 days after transplantation
Procedure: HO enzymatic activity was measured by bilirubin generation in heart and liver microsomes. Animals were sacrificed, and the liver and hearts were flushed with ice-cold PBS and frozen at −70° C. until used. Organs were homogenized in four volumes of sucrose (250 mM) Tris-HCl (10 mM/L) buffer (pH 7.4) on ice and centrifuged (28,000 RPM 3×, 20 min, 4° C.). The supernatant was centrifuged (105,000 RPM 3×, 60 min, 4° C.), and the microsomal pellet was resuspended in MgCl2 (2 mM)-potassium phosphate (100 mM) buffer (pH 7.4) and sonicated on ice. The samples (1 mg of protein) were added to the reaction mixture (400 îl) containing rat liver cytosol (2 mg of protein), hemin (50 îM), glucose-6-phosphate (2 mM), glucose-6-phosphate dehydrogenase (0.25 U), and NADPH (0.8 mM) for 60 min at 37° C. in the dark. The formed bilirubin was extracted with chloroform and, OD was measured at 464–530 nm (extinction coefficient, 40 mM/cm for bilirubin). Enzyme activity is expressed as picomoles of bilirubin formed per milligram of protein per 60 min (pmol/mg/h). The protein concentration was determined by the bicinchoninic acid protein assay (Pierce, Georgetown). The background was ˜5 pmol/mg/h. […] Carboxyhemoglobin was measured 2 days after transplantation by using a Corning 865 blood gas analyzer (Clinical Chemistry, Massachusetts General Hospital, Boston, Mass.).

[2] = tested on: mouse 2F–2B endothelial cells; experiment: Cellular ELISA for anti-graft Abs and rat C3 binding to mouse endothelial cells; assay type: in vivo; conditions: rats with mouse cardiac graft under CVF plus CsA
Procedure: Serum levels of rat anti-mouse Abs were measured by cellular-based indirect ELISA. The mouse 2F–2B endothelial cell line (CRL-2168; American Type Culture Collection (ATCC), Manassas, Va.) was used as an antigenic target. Briefly, 2F–2B cells were cultured in DMEM (Life Technologies, Rockville, Md.), 10% FCS, 100 U/ml penicillin, and 100 îg/ml streptomycin (Life Technologies). Glutaraldehyde-fixed 2F–2B cells were incubated (1 h, 37° C.) in the presence of rat serum serially diluted in PBS 0.05% Tween 20 (Sigma) and rat anti-mouse Abs were detected by using mouse anti-rat IgM (MARM-4), IgG1 (MARG1-2), IgG2a (Marg2a-1), IgG2b (MARGb-8), or IgG2c (MARG2c-5) (kind gifts from Prof. H. Bazin, University of Louvain, Brussels, Belgium). Mouse anti-rat Abs were detected by using HRP-labeled goat anti-mouse Fab′ depleted of anti-rat Ig cross reactivity (0.1 îg/ml, 1 h, room temperature; Pierce, Rockford, Ill.). […] Absorbance was measured at Î=490 nm. The relative amount of circulating anti-graft Abs in the serum was expressed as OD (Î=490) taken from one serial dilution in the linear range of the assay (1:32–1:1024).
Binding of rat C3 to mouse endothelial cells was measured by a modified cellular ELISA with mouse 2F–2B endothelial cells as antigenic targets (Miyatake et al, J. Immunol. 160:4114, 1998). Briefly, nonfixed 2F–2B endothelial cells were incubated in the presence of rat serum serially diluted in GVB^++ buffer (1 h, 37° C.). Cells were fixed in PBS, 0.05% glutaraldehyde, and rat C3 deposition was detected by using a mouse anti-rat C3 mAb (Serotec).

SMILES | time needed to reach normoglycemia (median) [1] [days] | total HO enzymatic activity in transplanted mouse hearts (HO enzymatic activity; rats treated with SnPPIX and exposed to CO) [pmol/mg/h] | influence on C3 deposition on mouse endothelial cells [2] | influence on anti-mouse Ab (IgM) response [2] | total HO enzymatic activity in transplanted mouse hearts (HO enzymatic activity) [pmol/mg/h]
[C-]#[O+] [CO, carbon monoxide] | 7 | 43.6 ± 7.57 | – | – | –
C=CC1=C(C)c2cc3[n-]c(cc4[n-]c(cc5nc(cc1n2)C(C)=C5C=C)c(C)c4CCC(=O)O)c(CCC(=O)O)c3C.[Fe+2] [FePPIX, iron protoporphyrin] | – | – | Neither SnPPIX or FePPIX treatment influenced C3 deposition | did not influence this Ab response | –
C=Cc1c2[n-]c(c1C)/C=c1\[n-]/c(c(C)c1C=C)=C\c1[n-]c(c(CCC(=O)O)c1C)C=c1[n-]/c(c(C)c1CCC(=O)O)=C\2.[Sn+4] [SnPPIX, tin protoporphyrin IX] | – | – | Neither SnPPIX or FePPIX treatment influenced C3 deposition | did not influence this Ab response | 32.37 ± 7.23
